Assay results as given in publication PMC8899614, “Triterpenoid Saponins From the Fruit of Acanthopanax senticosus (Rupr. & Maxim.) Harms” (Frontiers in Chemistry, 2022).
Like-named read-outs stand apart in the source and are kept apart here.

Columns and labels:
[1] = Cytotoxicity on BV2 microglia by CCK-8 assay; conditions: mouse, BV2 microglia cells
Experimental: (§1) A drug-containing medium (0, 50, 100, 200, 400, and 600 μM) was added to each well of the administration group, and an equal volume of medium was also added to the blank group, and they were incubate at 37°C and 5% CO2 for 24 h. After the culture, 10 μl of CCK-8 was added to each well and incubated for 1–4 h at 37°C and 5% CO2. The absorbance (OD) value of each well at 450 nm was detected with a microplate reader, repeating three times, and its IC50 value was calculated.

[2] = system: NO production in LPS-induced BV2 microglia; test: NO production inhibition in LPS-induced BV2 microglia (Griess reaction); assay type: cell-based; conditions: for IC50: read-out: Inhibitory effects on NO in LPS-induced BV-2 cells, IC50; for Inhibitory effect on neuroinflammation (in words): LPS-induced BV2 microglia neuroinflammation model
Experimental: The BV2 microglia cells were plated into a 96-well plate. After adding LPS (1 μg/ml) to each well for 12 h, it was treated with or without compounds of various concentrations (0, 100, 200, 300, 400, and 600 μM) for 12 h. The NO production in the supernatant was measured by the Griess reaction. The absorbance at 570 nm was measured using a microplate reader. The NO concentration and the inhibitory rate were calculated through a calibration curve. Quercetin was used as the positive control. Experiments were repeated three times.

[3] = system: BV2 microglia; test: Cytotoxicity on BV2 microglia by CCK-8 assay; conditions: read-out: Cytotoxic activities on BV2 cells, IC50; BV2 cells, 24 h, CCK-8, OD 450 nm, repeated three times
Experimental: as §1

[4] = LPS 1 μg/ml, Griess reaction, n = 3, x ± s, IC50 > 100 μM deemed inactive

CC1(C(=O)O)CCC2(C(=O)O)CCC3(C)C(=CCC4C5(C)CCC(OC6OCC(O)C(O)C6OC6OC(CO)C(O)C(O)C6O)C(C)(C)C5CCC43C)C2C1 [Compound 4, 3β-[(O-β-D-glucopyranosyl-(1→2)-α-L-arabinopyranosyl)oxy]olean12-ene-28,29-dioic acid]
IC50 at 24 h [1]: 246 ± 21.2 µM
IC50 ([2]; Mus musculus, BV-2): > 100 µM

C[C@@H]1O[C@@H](O[C@H]2[C@H](O[C@H]3CC[C@]4(C)[C@H]5CC=C6[C@@H]7CC(C)(C)CC[C@]7(C(=O)O)CC[C@@]6(C)[C@]5(C)CC[C@H]4C3(C)C)OC[C@H](O)[C@@H]2O)[C@H](O)[C@H](O)[C@H]1O [Compound 18, 3-O-[α-L-rhamnopyranosyl-(1→2)-α-L-arabinopyranosyl] oleanolic acid]
IC50 [3]: 204 ± 19.8 µM
IC50 [2, 4]: > 100 µM

COC(=O)C1OC(OC2CCC3(C)C(CCC4(C)C3CCC3C5=CC(C)(C)CCC5(C(=O)O)CCC34C)C2(C)CO)C(O)C(O)C1O [Compound 5, 3β,23-dihydroxyolean-18-en-28-oic acid 3-O-β-D-glucuronopyranoside-6′-O-methyl ester]
IC50 at 24 h [1]: 236 ± 20.2 µM
Inhibitory effect on neuroinflammation (in words) [2]: moderate inhibitory effects on neuroinflammation
IC50 ([2]; Mus musculus, BV-2): < 100 µM

CC1(C)CC[C@]2(C(=O)O)CC[C@]3(C)C(=CC[C@@H]4[C@@]5(C)CC[C@H](O[C@@H]6OC[C@H](O)[C@H](O)[C@H]6O[C@@H]6O[C@H](CO)[C@@H](O)[C@H](O)[C@H]6O)C(C)(C)[C@@H]5CC[C@]43C)[C@@H]2C1 [Compound 20, saponin PE]
IC50 [3]: 136 ± 10.6 µM
IC50 [2, 4]: > 100 µM

O=c1c(O)c(-c2ccc(O)c(O)c2)oc2cc(O)cc(O)c12 [Quercetin, reference compound]
IC50 ([2]; Mus musculus, BV-2): 10.5 ± 1.07 µM

CC1(C)CCC2(C(=O)O)CCC3(C)C(=CCC4C5(C)CCC(OC6OCC(O)C(OC7OC(CO)C(O)C(O)C7O)C6O)C(C)(C)C5CCC43C)C2C1 [Compound 21, oleanolic acid 3-O-β-D-glucopyranosyl (1→3)-α-L-arabinopyranoside]
IC50 [3]: 306 ± 28 µM

3-[(O-β-D-glucopyranosyl-(1→3)-α-L-arabinopyranosyl)oxy]-30- noroleana-12,20(29)-dien-28-oic acid [Compound 29]
IC50 [3]: 127 ± 10.6 µM
IC50 [2, 4]: > 100 µM

tragopogonsaponin A methyl ester [Compound 14]
IC50 [3]: 585 ± 45.6 µM
IC50 [2, 4]: > 100 µM

elatoside G [Compound 12]
IC50 [3]: 264 ± 22.9 µM
Inhibitory effect on neuroinflammation (in words) [2]: moderate inhibitory effects on neuroinflammation

CC1(C)CC[C@]2(C(=O)O[C@@H]3O[C@H](CO)[C@@H](O)[C@H](O)[C@H]3O)CC[C@]3(C)C(=CC[C@@H]4[C@@]5(C)CC[C@H](O[C@@H]6OC[C@H](O)[C@H](O)[C@H]6O)[C@@](C)(CO)[C@@H]5CC[C@]43C)[C@@H]2C1 [Compound 19, HN-saponin F]
IC50 [3]: 466 ± 35.1 µM
IC50 [2, 4]: > 100 µM

CC1(C)CC[C@]2(C(=O)O)CC[C@]3(C)C(=CC[C@@H]4[C@@]5(C)CCC(O[C@@H]6O[C@H](C(=O)O)[C@@H](O)[C@H](O)[C@H]6O)[C@@](C)(C=O)[C@@H]5CC[C@]43C)C2C1 (stereo partly shown) [Compound 11, gypsogenin 3-O-glucuronide]
IC50 [3]: 402 ± 39.5 µM
IC50 [2, 4]: > 100 µM

CC1OC(OC2C(OC3CCC4(C)C(CCC5(C)C4CC=C4C6CC(C)(O)CCC6(C(=O)O)CCC45C)C3(C)C)OCC(O)C2O)C(O)C(O)C1O [Compound 3, 3β-[(α-L-rhamnopyranosyl-(1→2)-α-L-arabinopyranosyl)oxy]-20α,30-dihydroxy-norolean-12-en-28-oic acid]
IC50 at 24 h [1]: 150 ± 13.6 µM
IC50 ([2]; Mus musculus, BV-2): > 100 µM

hederagenin-3-O-β-D- glucuronopyranoside 6′-O-methyl ester [Compound 13]
Inhibitory effect on neuroinflammation (in words) [2]: moderate inhibitory effects on neuroinflammation

lucyoside H [Compound 23]
IC50 [3]: 131 ± 10 µM
IC50 [2, 4]: > 100 µM

HN-saponin D1 [Compound 6]
IC50 [3]: 108 ± 8.24 µM
IC50 [2, 4]: > 100 µM

CC1(C)CC[C@]2(C(=O)O)CC[C@]3(C)C(=CC[C@@H]4[C@@]5(C)CC[C@H](O[C@@H]6O[C@H](C(=O)O)[C@@H](O)[C@H](O)[C@H]6O)C(C)(C)[C@@H]5CC[C@]43C)[C@@H]2C1 [Compound 8, oleanolic acid 3-O-β-D-glucuronopyranoside]
IC50 [3]: 107 ± 9.59 µM
IC50 [2, 4]: > 100 µM

CC1(C)CC[C@]2(C(=O)O)CC[C@]3(C)C(=CC[C@@H]4[C@@]5(C)CC[C@H](O[C@@H]6O[C@H](CO)[C@@H](O)[C@H](O)[C@H]6O[C@@H]6O[C@H](CO)[C@@H](O)[C@H](O)[C@H]6O)C(C)(C)[C@@H]5CC[C@]43C)[C@@H]2C1 [Compound 24, 3-O-β-D-glucopyranosyl-(1→2)-β-D-glucopyranosyl oleanolic acid]
IC50 [3]: 189 ± 15.2 µM
IC50 [2, 4]: > 100 µM

CC1(C)CC[C@]2(C(=O)O)CC[C@]3(C)C(=CC[C@@H]4[C@@]5(C)CC[C@H](O[C@@H]6OC[C@H](O)[C@H](O)[C@H]6O)[C@@](C)(CO)[C@@H]5CC[C@]43C)[C@@H]2C1 [Compound 7, hederagenin glycosides 3-O-α-L-arabinopyranoside]
IC50 [3]: 124 ± 10.6 µM
IC50 [2, 4]: > 100 µM

HN-saponin K [Compound 9]
IC50 [3]: 241 ± 18.6 µM
IC50 [2, 4]: > 100 µM

paritriside E [Compound 27]
IC50 [3]: 133 ± 11.8 µM
IC50 [2, 4]: > 100 µM

CCOC(=O)C1OC(OC2CCC3(C)C(CCC4(C)C3CC=C3C5CC(C)(C)CCC5(C(=O)OC5OC(CO)C(O)C(O)C5O)CCC34C)C2(C)CO)C(O)C(O)C1O [Compound 2, 3-O-β-D-6′-ethyl-glucuronopyranosyl-23-hydroxy-olean-12-en-28-β-D-glucopyranosyl]
IC50 at 24 h [1]: 157 ± 12.7 µM
IC50 ([2]; Mus musculus, BV-2): > 100 µM

3-O-β-D-(6′-O-methyl-glucuronopyranosyl) oleanolic acid [Compound 16]
IC50 [3]: 102 ± 9.77 µM
Inhibitory effect on neuroinflammation (in words) [2]: moderate inhibitory effects on neuroinflammation

3-O-α-rhamnopyranose- (1→2)-α-arabinopyranosyl-29-hydroxy-olean-12-en-28-oic acid [Compound 17]
IC50 [3]: 235 ± 21.1 µM
IC50 [2, 4]: > 100 µM

CC1(CO)CCC2(C(=O)O)CCC3(C)C(=CCC4C5(C)CCC(OC6OCC(O)C(OC7OC(CO)C(O)C(O)C7O)C6O)C(C)(C)C5CCC43C)C2C1 (stereo not drawn) [Compound 1, 3-O-β-glucopyranosyl-(1→3)-β-arabinopyranosyl-29-hydroxy-olean-12-en-28-oic acid]
IC50 at 24 h [1]: 143 ± 10.9 µM
IC50 ([2]; Mus musculus, BV-2): > 100 µM

3-O-β-D-glucuronopyranosyl-3β,16α-dihydroxyolean-12-en-28-oic acid [Compound 10]
IC50 [3]: 215 ± 20.2 µM
Inhibitory effect on neuroinflammation (in words) [2]: moderate inhibitory effects on neuroinflammation

CC1OC(OC2C(OC3CCC4(C)C(CCC5(C)C4CC=C4C6CC(C)(C)CCC6(C(=O)OC6OC(CO)C(O)C(O)C6O)CCC45C)C3(C)C)OCC(O)C2O)C(O)C(O)C1O [Compound 26, oleanolic acid 3-O-α-L-rhamnopyranosyl(1→2)-α-L-arabinopyranosyl-28-O-β-D-glucopyranosyl ester]
IC50 [3]: 160 ± 13.5 µM

3-O-α-arabinopyranosyl-(1→2)-β-glucopyranoside-30-norolean-12,20(29)-dien-28-oic acid [Compound 28]
IC50 [3]: 565 ± 48 µM
IC50 [2, 4]: > 100 µM

lucyoside F [Compound 22]
IC50 [3]: 146 ± 12.7 µM
IC50 [2, 4]: > 100 µM

3-O-6′-O-methyl-β-D-glucuronopy-ranoside of gypsogenin [Compound 15]
IC50 [3]: 157 ± 11 µM
IC50 [2, 4]: > 100 µM
